Laboratory results reported in patent US20110218360A1, “PREPARATION OF RASAGILINE AND SALTS THEREOF” (DR. REDDY'S LABORATORIES LTD., priority 2008, published 2011).
Structures can show the parent of a compound that is named as a salt. Where two headings read alike, the source gives them in different places.

How the values were obtained:
[1] = particle size distribution after micronisation
Description: (§1) The D10, D50, and D90 values are useful for indicating a particle size distribution. D90 refers to 90 volume percent of the particles having a size smaller than the specified value. Likewise D10 refers to 10 volume percent of the particles having a size smaller than the specified value. D50 refers to 50 volume percent of the particles having a size smaller than the specified value. Methods for determining D10, D50 and D90 include laser diffraction, such as using Malvern equipment (from Malvern Instruments Limited, Malvern, Worcestershire, United Kingdom).

[2] = for D10 / D50 / D90: storage at 25±2° C., relative humidity 65±5%; for change of particle size distribution / agglomerate formation on storage: ambient storage, up to 18 days, exposure to atmosphere
Description: as §1
Rasgiline mesylate (6 g) prepared according to Example 28 is divided into three parts for storage under ambient conditions (temperature=25±2° C.; relative humidity=65±5%): unpackaged (P-I); in closed packages with a nitrogen atmosphere (P-II); and in closed packages with an air atmosphere (P-III). The samples are analyzed for particle size distribution on the 5th and 18th days.

SMILES	D10 [1] [μm]	D50 [1] [μm]	D90 [1] [μm]	D[4,3] [1] [μm]	D10 ([2]; 5th day) [μm]	D50 ([2]; 5th day) [μm]	D90 ([2]; 5th day) [μm]	further results
C#CCN[C@@H]1CCc2ccccc21 [Example 27, Rasagiline mesylate]	0.779	2.285	5.517					
C#CCN[C@@H]1CCc2ccccc21 [Example 28, Rasagiline mesylate]	0.663	1.592	3.219	1.792				
C#CCN[C@@H]1CCc2ccccc21 [Example 30, Rasagiline mesylate]	0.761	2.346	4.981	2.650				
C#CCN[C@@H]1CCc2ccccc21 [Example 31, Rasagiline mesylate]	2.404	146.957	608.570					
C#CCN[C@@H]1CCc2ccccc21 [Example 32, Rasagiline mesylate]	0.991	3.093	6.540	3.496				
C#CCN[C@@H]1CCc2ccccc21 [rasagiline mesylate, (1R)—N-prop-2-ynyl-2,3-dihydro-1H-inden-1-amine methanesulfonate, reference compound]								change of particle size distribution / agglomerate formation on storage ([2]; methanesulfonate): susceptible to agglomerate formation

Continued, in another order:

D10 [1] [μm]	D50 [1] [μm]	D90 [1] [μm]	D[4,3] [1] [μm]	D10 ([2]; 5th day) [μm]	D50 ([2]; 5th day) [μm]	D90 ([2]; 5th day) [μm]	SMILES	further results
				1.319	4.216	151.379	C#CCN[C@@H]1CCc2ccccc21 [P-I, Rasgiline mesylate]	
				0.892	2.859	5.524	C#CCN[C@@H]1CCc2ccccc21 [P-II, Rasgiline mesylate]	change of particle size distribution / agglomerate formation on storage [2]: substantially unchanged; D10 ([2]; 18th day): 1.065 μm; D50 ([2]; 18th day): 3.227 μm; D90 ([2]; 18th day): 6.282 μm
				1.182	3.566	120.731	C#CCN[C@@H]1CCc2ccccc21 [P-III, Rasgiline mesylate]	D10 ([2]; 18th day): 1.365 μm; D50 ([2]; 18th day): 4.171 μm; D90 ([2]; 18th day): 144.617 μm
